From ChEMBL document CHEMBL5143569 (Eur J Med Chem, 2022)

Tests used:
[1] = molecular target: T1, Tyrosine-protein phosphatase non-receptor type 1 (Homo sapiens, UniProt P18031); experiment: Inhibition of wild-type PTP1B (2 to 435 residues) (unknown origin) using DiFMUP as substrate and measured by biochemical assay
T1 sequence (P18031 whole entry): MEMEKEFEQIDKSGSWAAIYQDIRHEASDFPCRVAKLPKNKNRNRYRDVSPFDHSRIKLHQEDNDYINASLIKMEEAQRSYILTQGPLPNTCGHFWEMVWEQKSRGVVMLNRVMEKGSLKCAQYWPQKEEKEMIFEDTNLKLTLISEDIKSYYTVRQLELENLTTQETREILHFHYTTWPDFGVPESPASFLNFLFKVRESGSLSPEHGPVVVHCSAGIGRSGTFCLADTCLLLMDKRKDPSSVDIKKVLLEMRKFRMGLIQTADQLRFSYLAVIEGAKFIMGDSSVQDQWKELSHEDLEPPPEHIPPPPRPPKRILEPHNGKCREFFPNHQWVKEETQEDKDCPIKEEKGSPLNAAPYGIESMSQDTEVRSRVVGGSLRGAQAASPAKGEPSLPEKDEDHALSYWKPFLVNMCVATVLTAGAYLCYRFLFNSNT

[2] = molecular target: Tyrosine-protein phosphatase non-receptor type 6 (Homo sapiens, UniProt P29350); experiment: Inhibition of wild-type SHP1 (2 to 595 residues) (unknown origin) using DiFMUP as substrate and measured by biochemical assay
[3] = Inhibition of SHP2 E76A mutant (unknown origin); set-up: species or system Homo sapiens
[4] = molecular target: T2, Tyrosine-protein phosphatase non-receptor type 11 (Homo sapiens, UniProt Q06124)
T2 sequence (Q06124 whole entry): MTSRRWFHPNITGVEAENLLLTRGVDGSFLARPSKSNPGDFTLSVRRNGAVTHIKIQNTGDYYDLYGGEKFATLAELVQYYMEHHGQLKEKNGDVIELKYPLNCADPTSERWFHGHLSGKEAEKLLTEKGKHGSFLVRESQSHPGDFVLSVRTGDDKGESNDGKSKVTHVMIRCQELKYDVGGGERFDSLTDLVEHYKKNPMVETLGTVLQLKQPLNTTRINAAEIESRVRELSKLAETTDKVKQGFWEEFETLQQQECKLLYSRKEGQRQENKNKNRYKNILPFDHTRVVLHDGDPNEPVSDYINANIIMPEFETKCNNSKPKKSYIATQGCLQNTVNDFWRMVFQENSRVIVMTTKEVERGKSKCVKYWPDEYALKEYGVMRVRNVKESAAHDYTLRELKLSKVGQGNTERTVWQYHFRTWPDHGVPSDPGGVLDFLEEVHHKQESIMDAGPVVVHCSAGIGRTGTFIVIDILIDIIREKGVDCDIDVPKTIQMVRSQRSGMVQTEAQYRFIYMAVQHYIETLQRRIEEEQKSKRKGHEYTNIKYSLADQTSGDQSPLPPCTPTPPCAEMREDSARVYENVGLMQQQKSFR

[5] = molecular target: T2, Tyrosine-protein phosphatase non-receptor type 11; remark: listed apart in the source
Description: Allosteric inhibition of recombinant human SHP2 PTP domain (237 to 535 residues) using DiFMUP as substrate preincubated for 30 mins and followed by substrate addition and measured by microplate reader method

[6] = molecular target: T2, Tyrosine-protein phosphatase non-receptor type 11; experiment: Reversible inhibition of wild-type human SHP2 using DiFMUP as substrate and measured by jump dilution assay

Tyrosine-protein phosphatase non-receptor type 6, sequence (P29350 whole entry, the tested form may be a part): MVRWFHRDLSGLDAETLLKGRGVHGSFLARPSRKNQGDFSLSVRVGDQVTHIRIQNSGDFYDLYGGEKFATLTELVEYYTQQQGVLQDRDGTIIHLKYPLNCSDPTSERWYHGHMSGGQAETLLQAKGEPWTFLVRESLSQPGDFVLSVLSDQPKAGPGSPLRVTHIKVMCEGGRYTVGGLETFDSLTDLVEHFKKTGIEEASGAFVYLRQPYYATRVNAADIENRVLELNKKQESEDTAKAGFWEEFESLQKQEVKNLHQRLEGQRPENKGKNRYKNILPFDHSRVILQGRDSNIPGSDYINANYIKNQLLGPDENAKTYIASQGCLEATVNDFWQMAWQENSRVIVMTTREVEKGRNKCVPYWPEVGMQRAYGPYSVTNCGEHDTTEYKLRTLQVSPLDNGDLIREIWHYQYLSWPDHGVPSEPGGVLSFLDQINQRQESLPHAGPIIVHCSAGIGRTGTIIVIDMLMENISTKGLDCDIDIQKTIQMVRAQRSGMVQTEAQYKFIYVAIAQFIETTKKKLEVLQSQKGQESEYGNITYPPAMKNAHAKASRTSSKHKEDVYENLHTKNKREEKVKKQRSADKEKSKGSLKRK

| IC50 [4] [µM] | IC50 [5] [µM] | Compound | further results |
| --- | --- | --- | --- |
| – | – | CC1(N)CCN(c2cnc(-c3cccc(Cl)c3Cl)c(N)n2)CC1 | IC50 [1]: > 100 µM; IC50 [2]: > 100 µM |
| – | – | CC1(N)CCN(c2nc(-c3ccc4cc(Br)ccc4c3)cs2)CC1 | IC50 [3]: 0.71 µM |
| 0.098 | > 10 | CC1(N)CCN(c2cnc(Sc3ccccc3Cl)c(N)n2)CC1 | – |
| 0.025 | > 10 | CC1(N)CCN(c2cnc(Sc3cccc(Cl)c3Cl)c(N)n2)CC1 | – |
| – | > 10 | CC1(CN)CCN(c2cnc(Sc3cccc(Cl)c3Cl)c(N)n2)CC1 | IC50 [1]: > 100 µM; Ki [6]: 0.022 µM; IC50 [2]: > 100 µM |
| 60 | – | COc1cccc(-c2nnc3n(Cc4ccc(C(=O)N5CCC[C@H]5C(=O)O)cc4Cl)c(=O)c4ccccc4n23)c1O | – |
| 0.175 | > 10 | CC1(N)CCN(c2cnc(Sc3cccc4ccccc34)c(N)n2)CC1 | – |
| 9.55 | > 10 | CC1(N)CCN(c2cnc(SC3CCCCC3)c(N)n2)CC1 | – |
| 13.7 | > 10 | CC1(O)CCN(c2cnc(-c3cccc(Cl)c3Cl)c(N)n2)CC1 | – |
| 2.03 | > 10 | Nc1nc(N2CC[C@H](N)C2)cnc1-c1cccc(Cl)c1Cl | – |
| 0.695 | > 10 | CN1CCN(c2cnc(-c3cccc(Cl)c3Cl)c(N)n2)CC1 | – |
| 0.747 | > 10 | CC1(N)CCN(c2cnc(Sc3cccc(Cl)c3)c(N)n2)CC1 | – |
| 0.11 | > 10 | NCC1CCN(c2cnc(Sc3cccc(Cl)c3Cl)c(N)n2)CC1 | – |
| 5.71 | > 10 | CC1(N)CCN(c2cnc(-c3cccc(F)c3F)c(N)n2)CC1 | – |
| 0.976 | > 10 | CC1(N)CCN(c2cnc(Sc3ccc4ccccc4c3)c(N)n2)CC1 | – |
| 0.178 | > 10 | CC1(N)CCN(c2cnc(Sc3ccccc3C(F)(F)F)c(N)n2)CC1 | – |

| IC50 [4] [µM] | IC50 [5] [µM] | Compound | further results |
| --- | --- | --- | --- |
| 0.811 | > 10 | CC1(N)CCN(c2cnc(Sc3ccccc3)c(N)n2)CC1 | – |
| 0.079 | > 10 | COc1ccccc1Sc1ncc(N2CCC(C)(N)CC2)nc1N | – |
| 1.8 | > 10 | Cc1ccccc1Sc1ncc(N2CCC(C)(N)CC2)nc1N | – |
| 14.8 | > 10 | CC1(N)CCN(c2cnc(-c3ccc(C#N)cc3)c(N)n2)CC1 | – |
| 9.03 | > 10 | Cc1ccc(-c2ncc(N3CCC(C)(N)CC3)nc2N)cc1 | – |
| 0.484 | > 10 | CC1(N)CCN(c2cnc(Sc3ccccc3F)c(N)n2)CC1 | – |
| 0.712 | > 10 | Nc1nc(N2CCNCC2)cnc1-c1cccc(Cl)c1Cl | – |
| 0.059 | > 10 | CC1(N)CCN(c2cnc(Sc3ccccc3Br)c(N)n2)CC1 | – |
| 2.77 | > 10 | Nc1nc(N2CCC(N)CC2)cnc1-c1cccc(Cl)c1Cl | – |
| 6.18 | > 10 | Nc1nc(N2CCC(O)CC2)cnc1-c1cccc(Cl)c1Cl | – |
| 1.64 | > 10 | CNC1CCN(c2cnc(-c3cccc(Cl)c3Cl)c(N)n2)CC1 | – |
| 0.858 | > 10 | NCCC1CCN(c2cnc(-c3cccc(Cl)c3Cl)c(N)n2)CC1 | – |
| 10.8 | > 10 | CC1(N)CCN(c2cnc(SCc3ccccc3)c(N)n2)CC1 | – |
| 3.84 | > 10 | CC1(N)CCN(c2cnc(Sc3ccc(Cl)cc3)c(N)n2)CC1 | – |
| 5.6 | > 10 | CC1(N)CCN(c2cnc(SCc3ccccc3Cl)c(N)n2)CC1 | – |
| 9.66 | > 10 | CN(CCN)c1cnc(-c2cccc(Cl)c2Cl)c(N)n1 | – |
